Results: patent US6803186B2, “Compositions and methods for increasing amino acid absorption in mammals” (The IAMS Company, priority 2001, dated 2004)

What was measured:
[1] = molecular target: T1, canine PepT1 (cPepT1) (Canis lupus familiaris, UniProt Q8WMX5); experiment: Substrate regulation of H+-dependent GlySar uptake capacity of MDCK cells cultured in DMEM (Example 3, Trials 1 and 2); type: cell-based; details: 10 mM in DMEM
T1 construct: endogenous in cells; host or cells: MDCK (Madin-Darby Canine Kidney) cells, whole-cell [3H]-GlySar uptake
T1 sequence (Q8WMX5 1-708): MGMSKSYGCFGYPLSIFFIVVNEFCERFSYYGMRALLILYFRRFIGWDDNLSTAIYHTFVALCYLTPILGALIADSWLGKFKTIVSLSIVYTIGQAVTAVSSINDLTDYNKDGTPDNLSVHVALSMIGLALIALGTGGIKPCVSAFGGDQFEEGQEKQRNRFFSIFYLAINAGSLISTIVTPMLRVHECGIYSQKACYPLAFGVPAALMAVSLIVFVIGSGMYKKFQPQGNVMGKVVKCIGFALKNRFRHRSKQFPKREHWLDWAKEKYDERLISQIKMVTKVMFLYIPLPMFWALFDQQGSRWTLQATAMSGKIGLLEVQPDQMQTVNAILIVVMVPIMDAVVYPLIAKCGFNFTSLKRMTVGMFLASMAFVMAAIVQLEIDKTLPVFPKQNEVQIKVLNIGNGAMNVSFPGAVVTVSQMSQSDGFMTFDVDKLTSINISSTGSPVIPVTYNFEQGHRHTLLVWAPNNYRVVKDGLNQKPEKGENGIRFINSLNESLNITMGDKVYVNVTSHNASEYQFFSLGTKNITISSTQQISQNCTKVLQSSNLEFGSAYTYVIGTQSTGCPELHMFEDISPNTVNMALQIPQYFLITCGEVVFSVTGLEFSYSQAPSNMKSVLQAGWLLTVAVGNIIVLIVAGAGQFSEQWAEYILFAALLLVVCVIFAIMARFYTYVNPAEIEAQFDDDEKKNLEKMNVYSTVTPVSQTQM
Experimental: All cells were plated (60,000/2 cm^2 well) and cultured (95% air/5% CO2, 37° C.) for 24 h in Dulbecco's Modified Eagle Media/10% fetal calf serum (FCS)/1%Antibiotic/Antimicrobial solution (ABAM) (DMEM media). Following these initial common culture conditions, cells then were cultured in DMEM, or DMEM that contained 10 mM of Camosine, GlyPhe, Phe, or Gly. Media were changed every 24 h. Media treatments (n=8) were as follows:
The measurement of [^3H]Glysarcosine uptake was performed by using a 24-well cluster tray method (Kilberg M S. Measurement of amino acid transport by hepatocytes in suspension and monolayer culture. Methods Enzym 1989; 173:564-575. Matthews J C, Aslanian A, McDonald K K, Yang W, Malandro M S, Novak D A, Kilberg M S. An expression system for mammalian amino acid transport using a stably maintained episomal vector. Anal Biochem 1997; 254:208-214), and used in Examples 1 and 2. Cells were cultured for 30 min in air at 37° C. in depletion medium (25 mM Hepes/Tris (pH 7.5), 140 mM NaCl, 5.4 mM KCl, 1.8 mM CaCl2, 0.8 mM MgSO4, and 5 mM glucose), to normalize intracellular nutrient pools before transport. The transport assays are initiated by replacing depletion medium with uptake medium (Depletion medium adjusted to pH 6.0) that contained 100 μM GlySar (5 μCi/mL, with [^3H]-GlySar supplying 2.88% of total GlySar). After a 30 minute incubation period, transport was terminated with four rinses of 4° C. depletion medium (pH 7.5). Two hundred and twenty μL of 10% trichloroacetic acid was added to each well, and the radioactivity of the supernatant quantified by liquid scintillation counting. The cells of each well are solubilized in 0.2 N NaOH/0.2% SDS and the protein quantified by using the modified Lowry assay, using bovine serum as a standard. Id. Peptide uptake will be reported as pmol* mg^−1 protein* 30 min^−1. Uptake measurements were taken after 24, 48, and 72 hours of culture in treatment media.
The MDCK cell line was maintained as described previously in the Methods section of Trial 1. […]

[2] = molecular target: T1, canine PepT1 (cPepT1); experiment: Inhibition of H+-dependent 100 μM GlySar uptake by MDCK cells cultured in LHM; type: cell-based; details: 100 μM GlySar
Experimental: Characteristic hallmarks of low affinity H^+/peptide cotransport activity, classically defined using membrane vesicles of several species, and more recently by functional expression studies using human, rat, and rabbit PepT1 cDNA, is the recognition of some, but not all, β-lactam antibiotics. […] To determine whether MDCK cPepT1 activity shared these functional features, the uptake of 100 μM GlySar in the absence and presence of pH 7.5 and pH 6.0 buffer, and, in pH 6.0 buffers, the presence of 1 mM additional GlySar (self-inhibitor control), 3 mM Penicillin-G, 30 μM cefadroxil, or 3 mM cefadroxil was compared (FIG. 13).
Other hallmarks of PepT1 function are the decreased ability of Gly-containing peptides to inhibit GlySar, in proportion to their length, and sensitivity to inhibition by carnosine (β-Ala-His).
Accordingly, the following general regimen was used to perform a series of experiments that evaluated the relative abilities of candidate di-(primarily) and tri-peptides to inhibit GlySar uptake by endogenously expressed cPepT1 in MDCK cells:
1. Sixty thousand cells/well were plated into collagen-coated 24-well trays and cultured at 37° C. in an atmosphere of 95% air/5% CO2 in DMEM/10% FCS that contained antibiotics for 1 day.
2. The media was removed and cells were cultured in LHM/10% FCS/antibiotics for 1 day.
3. The media was removed and cells cultured in LHM/10% FCS (no antibiotics) for 20 h.
4. The media was removed and cells cultured for 30 min in air at 37° C. in depletion medium (25 mM Hepes/Tris (pH 7.5), 140 mM NaCl, 5.4 mM KCl, 1.8 mM CaCl2, 0.8 mM MgSO4, and 5 mM glucose, to normalize intracellular nutrient pools.
5. Transport was initiated by replacing depletion medium with uptake medium (depletion medium adjusted to pH 6.0 or kept at pH 7.4) that contained 100 μM GlySar (at a specific activity of 5 μCi/mL, with [^3H]-GlySar supplying 2.88% of total GlySar substrate) and (or) 1 mM of inhibiting peptide.
In total, 23 inhibitory peptides and 2 drug compounds were screened using this protocol.

[3] = system: canine PepT1 (cPepT1); experiment: Influence of dexamethasone, insulin and IGF-I on H+-dependent GlySar uptake by MDCK cells (Trials 3A, 3B); type: cell-based; details: for effect on H+-dependent GlySar uptake capacity: 5 or 500 nM in DMEM, 4 h of culture
Experimental: MDCK cells were maintained as described in Trial 1, except that cells were cultured for only 1 d before transport trials were performed. Following initial and common culture conditions, cells were cultured in a “nutrient depleted” buffer (Hepes/Tris (pH 7.5),140 mM NaCl, 5.4 mM KCl, 1.8 mM CaCl2, 0.8 mM MgSO4) that contained 5 mM glucose as an energy source, but that lacked amino acid or vitamin sources. In contrast, cells cultured in DMEM, or DMEM that contained 5 nM Dex, 500 nM Dex, 5 nM insulin, or 500 nM insulin, were adequately nourished. Media treatments (n=4) were as follows:
The measurement of [^3H]Glysarcosine uptake was performed by using the 24-well cluster tray method as previously described in the Methods section of Trial 1. Peptide uptake is reported as pmol* mg^−1 protein*30 min^−1. Uptake measurements were taken after 30 min and 4 h of culture in treatment media.
Trial 3B was conducted in the same manner as described for Trail 3A, except that cells were cultured in DMEM or DMEM that contained 1 nM IGF-1, 5 nM IGF-1, 25 nM IGF-1, or 100 nM IGF-1. Uptake measurements were taken after 30 min and 4 h of culture time.

[4] = molecular target: T2, PepT2 (Homo sapiens, UniProt Q16348); details: read-out: Ki of cefadroxil inhibition of PepT2 transport of GlySar; cited from earlier work
T2 sequence (Q16348 1-729): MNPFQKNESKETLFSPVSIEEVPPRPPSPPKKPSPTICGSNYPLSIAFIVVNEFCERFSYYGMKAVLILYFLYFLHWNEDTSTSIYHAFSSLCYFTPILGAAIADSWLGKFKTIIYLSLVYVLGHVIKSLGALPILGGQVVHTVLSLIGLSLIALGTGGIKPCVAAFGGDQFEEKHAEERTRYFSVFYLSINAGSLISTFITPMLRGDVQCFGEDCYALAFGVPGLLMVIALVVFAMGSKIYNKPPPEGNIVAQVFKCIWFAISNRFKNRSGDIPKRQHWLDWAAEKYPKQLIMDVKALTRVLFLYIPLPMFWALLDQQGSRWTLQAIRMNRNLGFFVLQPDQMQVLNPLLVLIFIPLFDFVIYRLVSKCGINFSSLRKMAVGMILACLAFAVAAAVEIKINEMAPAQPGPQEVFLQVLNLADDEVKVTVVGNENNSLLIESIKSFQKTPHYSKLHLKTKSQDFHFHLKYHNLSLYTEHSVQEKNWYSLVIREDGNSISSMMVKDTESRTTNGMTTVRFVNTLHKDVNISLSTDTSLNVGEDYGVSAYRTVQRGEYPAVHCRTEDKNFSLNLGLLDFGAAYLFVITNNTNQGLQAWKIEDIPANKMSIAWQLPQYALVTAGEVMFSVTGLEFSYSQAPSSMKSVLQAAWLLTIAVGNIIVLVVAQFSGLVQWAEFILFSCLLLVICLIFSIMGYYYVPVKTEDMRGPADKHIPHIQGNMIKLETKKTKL

[5] = molecular target: T3, PepT1 (Homo sapiens, UniProt P46059); details: read-out: Ki of cefadroxil inhibition of GlySar uptake by PepT1; cited from earlier work
T3 sequence (P46059 1-708): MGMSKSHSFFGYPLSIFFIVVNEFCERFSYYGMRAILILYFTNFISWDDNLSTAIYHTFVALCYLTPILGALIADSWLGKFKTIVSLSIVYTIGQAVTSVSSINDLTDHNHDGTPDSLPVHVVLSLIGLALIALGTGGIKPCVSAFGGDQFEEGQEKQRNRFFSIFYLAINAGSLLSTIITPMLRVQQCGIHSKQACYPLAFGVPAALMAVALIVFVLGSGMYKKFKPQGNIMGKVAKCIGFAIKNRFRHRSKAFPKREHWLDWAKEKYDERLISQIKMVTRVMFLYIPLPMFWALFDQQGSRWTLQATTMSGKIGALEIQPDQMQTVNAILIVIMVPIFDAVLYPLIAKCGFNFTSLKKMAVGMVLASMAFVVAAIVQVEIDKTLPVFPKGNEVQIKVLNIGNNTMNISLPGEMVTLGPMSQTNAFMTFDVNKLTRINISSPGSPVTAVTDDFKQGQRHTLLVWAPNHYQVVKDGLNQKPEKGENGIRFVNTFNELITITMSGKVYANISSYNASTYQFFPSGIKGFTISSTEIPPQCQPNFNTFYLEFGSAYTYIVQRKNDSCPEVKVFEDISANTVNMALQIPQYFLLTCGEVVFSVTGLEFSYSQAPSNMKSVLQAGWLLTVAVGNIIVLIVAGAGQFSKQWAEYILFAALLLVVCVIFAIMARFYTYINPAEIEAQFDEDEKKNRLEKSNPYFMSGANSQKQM

## NCCC(=O)N[C@@H](Cc1cnc[nH]1)C(=O)O [Carnosine, Carnosine (β-AlaHis)]
[1]; 72 h of culture
  increase of GlySar uptake capacity over DMEM-cultured cells: 23%
[1]; 216 h of culture
  increase of GlySar uptake capacity over DMEM-cultured cells: 291%
[2]; 1 mM extracellular substrate, pH 6.0, 30 min
  % inhibition of H+-dependent GlySar uptake: 50%

## C[C@@H]1C[C@H]2[C@@H]3CCC4=CC(=O)C=C[C@]4(C)[C@@]3(F)[C@@H](O)C[C@]2(C)[C@@]1(O)C(=O)CO [dexamethasone]
[3]
  effect on H+-dependent GlySar uptake capacity: no effect

## IGF-I: Insulin-like Growth factor I
[3]; increasing amounts of IGF-I (1 to 100 nM) in DMEM
  stimulation of H+-dependent GlySar uptake: no significant stimulation

## insulin: insulin (negative control)
[3]
  effect on H+-dependent GlySar uptake capacity: no effect

## CC1=C(C(=O)O)N2C(=O)[C@@H](NC(=O)[C@H](N)c3ccc(O)cc3)[C@H]2SC1 [Cefadroxil]
[4]
  Ki: 0.03 mM
[5]
  Ki: 3 mM
[2]; 30 μM cefadroxil
  % inhibition of H+-dependent GlySar uptake: not inhibited
[2]; MDCK, 30 μM cefadroxil
  inhibition at 30 µM: 0%
[2]; MDCK, 3 mM cefadroxil
  inhibition at 3000 µM: ~76%
